The values below come from paper PMC10119423, “From PERK to RIPK1: Design, synthesis and evaluation of novel potent and selective necroptosis inhibitors” (Frontiers in Chemistry, 2023).

One assay has as its system MEFs. Kind of assay: RIPK1 kinase-dependent apoptosis (hTNF + TAK1i) in MEFs, Sytox Green. It counts as cell-based. The following applies: Mus musculus, TAK1i + hTNF (100 pg/mL). The source says: In MEFs, TNF together with the pan caspases inhibitor zVAD.fmk induces RIPK1-dependent necroptosis while TNF together with TAK1 inhibitor induces RIPK1 kinase-dependent apoptosis. We also included the conditions selected for the Western blot experiments, where necroptosis was induced by the combination of hTNF, zVAD.fmk and TAK1 inhibitor.

The next assay concerns the target T1, RIPK1 (Mus musculus, UniProt Q60855).
T1 construct: endogenous in cells; host or cells: immortalized mouse embryonic fibroblasts (MEFs, C57Bl6/J)
T1 sequence (Q60855 1-656): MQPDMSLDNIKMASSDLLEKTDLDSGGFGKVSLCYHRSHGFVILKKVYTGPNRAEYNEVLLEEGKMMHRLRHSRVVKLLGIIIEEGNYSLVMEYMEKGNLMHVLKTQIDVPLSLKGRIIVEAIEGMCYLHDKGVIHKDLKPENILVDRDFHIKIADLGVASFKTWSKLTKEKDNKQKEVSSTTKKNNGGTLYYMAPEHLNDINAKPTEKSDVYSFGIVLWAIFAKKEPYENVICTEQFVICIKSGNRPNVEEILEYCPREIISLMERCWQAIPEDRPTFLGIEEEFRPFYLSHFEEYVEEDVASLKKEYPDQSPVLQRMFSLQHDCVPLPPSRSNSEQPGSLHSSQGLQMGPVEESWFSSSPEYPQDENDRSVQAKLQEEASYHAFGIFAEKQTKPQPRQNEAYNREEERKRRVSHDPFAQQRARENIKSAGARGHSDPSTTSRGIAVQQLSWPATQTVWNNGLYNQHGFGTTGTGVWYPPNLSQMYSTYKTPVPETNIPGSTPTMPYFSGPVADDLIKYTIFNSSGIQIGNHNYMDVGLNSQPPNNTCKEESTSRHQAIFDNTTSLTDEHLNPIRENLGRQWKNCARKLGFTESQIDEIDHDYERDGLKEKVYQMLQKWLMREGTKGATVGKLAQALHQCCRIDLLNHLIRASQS
Kind of assay: RIPK1 autophosphorylation (pS166) by Western blot in MEFs stimulated with hTNF + TAK1i + zVAD.fmk. It counts as cell-based. The following applies: immortalised MEFs, 30 min pretreatment with zVAD.fmk 50 μM, TAK1i 1 μM and compound, hTNF 20 ng/ml for 2.5 h, read-out: RIPK1 inhibition (IC50 estimated from a Western blot). As for the experimental part: MEFs were seeded in 6-well plates at a density of 300.000 cells/well in 2 mL. The next day, the cells were suspended in 1 mL of medium and pre-treated for 30 min with the indicated compounds at 1/5 dilutions series for PERK ranging from 5 to 0.04 µM and 1 μg/mL of Tm followed by 4 h treatment with 20 ng/mL of hTNF. For RIPK1, the cells were pre-treated at 1/10 dilutions series ranging from 10 to 0.01 nM, 50 µM zVAD.fmk and 1 µM TAKi before stimulation with 20 ng/mL of hTNF for 2.5 h. Then, the cells were washed two times with 1 mL of ice-cold PBS before lysis in 0.2 mL of Laemmli buffer 1x (10% (w/v) SDS, 50% glycerol, 0.5% bromophenol blue, 250 mM Tris–HCl pH 6.8) and 250 mM of dithiothreitol (DTT). The cell lysate was then collected and boiled at 95 °C for 10min and stored at −20°C. Proteins expression was later monitored by immunoblotting.
Activation of PERK was induced by stimulation of the cells with Tunicamycin, as previsouly reported ([Bull and Thiede, 2012]). More precisely, the immortalised MEFs were pre-incubated for 30 min with the analogues 18–34 at different concentrations (0.04, 0.2, 1, and 5 µM) prior to 4 h stimulation with Tunicamycin (1 μg/mL). […] Their activities were evaluated by comparing the intensity of the signal to unstimulated MEFs (considered as zero phosphorylation) and Tunicamycin stimulated cells (considered as 100% PERK phosphorylation). The 12 compounds (18–20, 22–29 and 34) that had lost their inhibitory capacity on PERK were then tested for their ability to inhibit RIPK1 as shown in Figures 6A–H. Activation and autophosphorylation of RIPK1 was induced by stimulating the cells with TNF in the presence of TAK1 inhibitor and of the pan-caspases inhibitor zVAD.fmk, a well established necroptotic trigger ([Vanlangenakker et al., 2011]). The MEFs were pre-incubated for 30 min with the different compounds (0.01 nM–1000 nM) and then stimulated with human TNF (20 ng/mL) for 2.5 h. Similar to the PERK assessment, IC50 values for RIPK1 inhibition were estimated as a range of concentrations, and are reported in Table 1. These experiments provide an estimation of the specificity of our analogues against PERK and RIPK1 in comparison to the benchmark GSK’157 already reported as a potent PERK and RIPK1 inhibitor.

For the next assay, the system named is immortalized MEFs. Kind of assay: RIPK1 kinase-dependent necroptosis (hTNF + zVAD.fmk) in MEFs, Sytox Green.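 Note: cell death taken as background-corrected Sytox Green fluorescence relative to the maximal signal of cells fully permeabilized with 0.1% Triton X-100.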 The conditions noted are these: Mus musculus, 24 h. It counts as cell-based, mouse.
For another assay, the system named is HT-29. Kind of assay: Necroptosis (hTNF + TAK1i + zVAD.fmk) in HT-29 cells, Sytox Green. The following applies: Homo sapiens, HT-29, read-out: Necroptosis hTNF + TAK1i + zVAD.fmk HT-29 IC50.
A further assay concerns 300 kinases. Details: method as in Axten et al., 2013. The conditions noted are these: 10 µM, out of 300 kinases; ref Axten et al., 2013; cited from earlier work.
In the next assay the test system is panel of 294 kinases. Further details: method as in Axten et al., 2012. The conditions noted are these: 10 µM, ref Axten et al., 2012; cited from earlier work.

pIC50: −log10 of the molar value. Read-outs that look alike come from different tables or passages of the source.

Procedure for HT-29: In brief, the cells were seeded in duplicate at 10,000 cells per well in a 96-well adherent plate and incubated overnight at 37°C with 5% CO2. […] All the compound stock solutions were prepared in DMSO at 200 µM concentration. After stimulating the cells with human TNF at 20 ng/mL the plate was transferred to the incubator. Sytox Green intensity was measured in function of time at 0, 14 and 24 h with an excitation filter of 485 nm, an emission filter of 520 nm. The cell death was calculated by subtracting the background fluorescence from the induced Sytox Green fluorescence and by dividing the obtained result by the maximal fluorescence (minus the background fluorescence) obtained by permeabilization of the cells by using Triton X-100 at a final concentration of 0.1%. Curves were plotted in GraphPad 9 for the IC50 calculation.
To induce necroptosis in human colorectal adenocarcinoma cell line (HT-29) together with hTNF and the pan caspases inhibitor zVAD.fmk, TAK1 inhibitor is also needed.
Procedure for immortalized MEFs: In brief, the cells were seeded in duplicate at 10,000 cells per well in a 96-well adherent plate and incubated overnight at 37°C with 5% CO2. […] All the compound stock solutions were prepared in DMSO at 200 µM concentration. After stimulating the cells with human TNF at 20 ng/mL the plate was transferred to the incubator. […] The cell death was calculated by subtracting the background fluorescence from the induced Sytox Green fluorescence and by dividing the obtained result by the maximal fluorescence (minus the background fluorescence) obtained by permeabilization of the cells by using Triton X-100 at a final concentration of 0.1%. Curves were plotted in GraphPad 9 for the IC50 calculation.
Consequently, the compounds were evaluated for their potential protection of RIPK1-mediated necroptosis following human TNF stimulation.

Regarding `Cc1cccc(CC(=O)N2CCc3c2ccc(-c2cn(C)c4ncnc(N)c24)c3F)n1` [Compound 10, reference compound], the pIC50 in the assay with MEFs was 8.43; on RIPK1, 9.00 to 10.00; in the assay with immortalized MEFs (read-out: IC50 necroptosis), 9.38; in the assay with immortalized MEFs (MEFs, hTNF + zVAD.fmk (20 ng/mL), Table 2, read-out: Necroptosis hTNF + zVAD.fmk MEFs IC50), 9.15; in the assay on HT-29 it was 8.51. Also, the “number of kinases inhibited with more than 80%” value in the assay with 300 kinases is 17.
`Cn1cc(-c2ccc3c(c2)CCN3C(=O)Cc2cccc(C(F)(F)F)c2)c2c(N)ncnc21` [GSK’414, 7-methyl-5-(1-{[3-(trifluoromethyl)phenyl]acetyl}-2,3-dihydro-1H-indol-5-yl)-7H-pyrrolo[2,3-d]pyrimidin-4-amine]: the “number of kinases inhibited with more than 85%” value in the assay with panel of 294 kinases was 20.

In general, pIC50 refers to the negative decadic logarithm of the IC50, by convention in mol/L.
